According to patent publication US6710052B2, “Pyrimidine compounds” (AstraZeneca, priority 2000, dated 2004):

Legend:
[1] = molecular target: T1, human Focal Adhesion Kinase (FAK) (Homo sapiens, UniProt Q05397); test: FAK3 Kinase Inhibition Assay; assay type: biochemical; conditions: in vitro enzyme assay; read-out: FAK inhibitory activity IC50
T1 construct: FAK (full length human cDNA described by Andre et al); made in house; host or cells: Sf21 insect cells, recombinant baculovirus (pFastbac 1)
Text: FAK3 Kinase Inhibition Assay
This assay determines the ability of a test compound to inhibit tyrosine kinase activity of human Focal Adhesion Kinase (FAK).
DNA encoding FAK is obtained by total gene synthesis (Edwards M, International Biotechnology Lab 5(3), 19-25, 1987) or by cloning. These are then expressed in a suitable expression system to obtain polypeptide with tyrosine kinase activity.
Active FAK protein has been previously expressed in a baculovirus system using a similar N-terminal 6-histidine tag (Protein Expression And Purification, 1996, 7: 12-18). The human FAK cDNA was cloned into the baculovirus transplacement vector, pFastbac 1 (Life Technologies), and the recombinant construct was co-transfected into insect cells (for example Spodoptera frugiperda 21(Sf21)) with viral DNA to prepare recombinant baculovirus (details of the methods for the assembly of recombinant DNA molecules and the preparation and use of recombinant baculovirus can be found in standard texts for example Sambrook et al, 1989, Molecular cloning—A Laboratory Manual, 2nd edition, Cold Spring Harbour Laboratory Press and O'Reilly et al, 1992, Baculovirus Expression Vectors—A Laboratory Manual, W. H. Freeman and Co, New York. Details specific to the use of the pFastbac (‘Bac to Bac’) system are provided in Anderson et al., 1995, FOCUS (Life Technologies Bulletin Magazine), 17, p53.) […]

CDK4/Cyclin D1 = molecular target: T2, CDK4/Cyclin D1 (Homo sapiens, UniProt P11802); test: CDK4 Inhibition Assay (Scintillation Proximity Assay, GST-Retinoblastoma substrate); assay type: biochemical; conditions: in vitro kinase assay; read-out: CDK4 inhibitory activity IC50
T2 construct: made in house; host or cells: Sf21 insect cells, baculovirus co-infection (pVL1393); the GST-Rb substrate was made in E. coli BL21 (DE3) pLysS
Protocol: The compounds were tested in an in vitro kinase assay in 96 well format using Scintillation Proximity Assay (SPA—obtained from Amersham) for measuring incorporation of [γ-33-P]-Adenosine Triphosphate into a test substrate (GST-Retinoblastoma). In each well was placed the compound to be tested (diluted in DMSO and water to correct concentrations) and in control wells either p 16 as an inhibitor control or DMSO as a positive control.
Approximately 0.51 μl of CDK4/Cyclin D1 partially-purified enzyme (amount dependent on enzyme activity) diluted in 25 μl incubation buffer was added to each well then 20 μl of GST-Rb/ATP/ATP33 mixture (containing 0.5 μg GST-Rb and 0.2 μM ATP and 0.14 μCi [γ-33-P]-Adenosine Triphosphate), and the resulting mixture shaken gently, then incubated at room temperature for 60 minutes. […]
The plates were sealed with Topseal-S plate sealers, left for two hours then spun at 2500 rpm, 1124× g., for 5 minutes. The plates were read on a Topcount for 30 seconds per well. […]
E. coli paste was resuspended in 10 ml/g of NETN buffer (50 mM Tris pH 7.5, 120 mM NaCl, 1 mM EDTA, 0.5%v/v NP-40, 1 mM PMSF, 1 ug/ml leupeptin, 1 ug/ml aprotinin and 1 ug/ml pepstatin) and sonicated for 2×45 seconds per 100 ml homogenate. […] The final product was analysed by Sodium Dodeca Sulfate (SDS) PAGE (Polyacrylamide gel) using 8-16% Tris-Glycine gels (Novex, San Diego, USA). […]

T2 sequence (P11802 whole entry): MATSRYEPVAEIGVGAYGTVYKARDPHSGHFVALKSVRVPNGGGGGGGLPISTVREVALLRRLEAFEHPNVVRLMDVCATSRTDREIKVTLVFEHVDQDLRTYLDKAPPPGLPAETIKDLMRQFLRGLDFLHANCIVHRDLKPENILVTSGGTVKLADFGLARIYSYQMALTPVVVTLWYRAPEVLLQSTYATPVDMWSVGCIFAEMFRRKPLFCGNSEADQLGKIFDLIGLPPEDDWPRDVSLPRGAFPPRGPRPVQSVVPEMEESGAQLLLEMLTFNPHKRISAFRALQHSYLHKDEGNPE
T2 sequence (P24385 whole entry partner): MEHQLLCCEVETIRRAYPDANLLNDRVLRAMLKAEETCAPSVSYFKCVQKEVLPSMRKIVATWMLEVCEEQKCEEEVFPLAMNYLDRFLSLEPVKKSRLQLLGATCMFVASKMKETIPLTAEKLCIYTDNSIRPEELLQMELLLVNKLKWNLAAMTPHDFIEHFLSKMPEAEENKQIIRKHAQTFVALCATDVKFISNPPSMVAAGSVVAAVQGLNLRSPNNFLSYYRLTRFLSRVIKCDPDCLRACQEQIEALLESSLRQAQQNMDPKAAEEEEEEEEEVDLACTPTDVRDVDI
T1 sequence (Q05397 whole entry): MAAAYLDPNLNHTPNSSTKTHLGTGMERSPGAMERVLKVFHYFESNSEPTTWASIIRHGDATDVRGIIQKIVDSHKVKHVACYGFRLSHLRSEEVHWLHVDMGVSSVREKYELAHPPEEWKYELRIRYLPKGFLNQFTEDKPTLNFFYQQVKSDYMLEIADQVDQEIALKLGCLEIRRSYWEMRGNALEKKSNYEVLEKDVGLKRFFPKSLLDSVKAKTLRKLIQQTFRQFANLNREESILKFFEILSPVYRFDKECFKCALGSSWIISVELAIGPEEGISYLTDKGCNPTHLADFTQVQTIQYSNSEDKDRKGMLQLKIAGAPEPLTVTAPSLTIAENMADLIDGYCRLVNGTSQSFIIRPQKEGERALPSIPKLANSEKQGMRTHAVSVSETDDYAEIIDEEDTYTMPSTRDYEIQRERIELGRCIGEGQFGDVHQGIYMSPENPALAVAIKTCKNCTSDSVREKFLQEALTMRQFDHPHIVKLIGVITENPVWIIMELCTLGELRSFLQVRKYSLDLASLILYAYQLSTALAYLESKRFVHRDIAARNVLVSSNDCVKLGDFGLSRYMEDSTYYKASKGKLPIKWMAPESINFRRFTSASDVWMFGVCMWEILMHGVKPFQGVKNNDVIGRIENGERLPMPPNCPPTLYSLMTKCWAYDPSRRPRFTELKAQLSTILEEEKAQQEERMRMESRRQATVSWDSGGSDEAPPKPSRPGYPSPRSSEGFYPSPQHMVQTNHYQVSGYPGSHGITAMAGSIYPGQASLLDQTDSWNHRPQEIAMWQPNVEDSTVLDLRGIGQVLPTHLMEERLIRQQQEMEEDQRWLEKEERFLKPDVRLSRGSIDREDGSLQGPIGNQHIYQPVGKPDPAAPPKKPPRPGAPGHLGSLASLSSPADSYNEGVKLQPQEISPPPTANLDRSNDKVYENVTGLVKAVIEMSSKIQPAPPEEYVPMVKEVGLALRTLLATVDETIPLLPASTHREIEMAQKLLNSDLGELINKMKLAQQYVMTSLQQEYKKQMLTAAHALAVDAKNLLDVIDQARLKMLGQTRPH

CN(C)CC(O)COc1ccc(Nc2ncc(Br)c(Sc3ccccc3)n2)cc1 (centres unmarked) [Example 14, 5-Bromo-2-{4-[2-hydroxy-3-(N,N-dimethylamino)propoxy]anilino}-4-(phenylthio)pyrimidine]
IC50 [1]: 366 nM

COc1ccc(Oc2nc(Nc3ccc(OCC(O)CNC(C)C)cc3)ncc2F)cc1 (centres unmarked) [Example 13]
IC50 (CDK4/Cyclin D1): 896 nM
